# According to US11667602B2, “Compounds and their use” (AstraZeneca AB, priority 2020, dated 2023):
# Target: T1, human RXFP1 (Homo sapiens, UniProt Q9HBX9)
# T1 sequence (Q9HBX9 1-757): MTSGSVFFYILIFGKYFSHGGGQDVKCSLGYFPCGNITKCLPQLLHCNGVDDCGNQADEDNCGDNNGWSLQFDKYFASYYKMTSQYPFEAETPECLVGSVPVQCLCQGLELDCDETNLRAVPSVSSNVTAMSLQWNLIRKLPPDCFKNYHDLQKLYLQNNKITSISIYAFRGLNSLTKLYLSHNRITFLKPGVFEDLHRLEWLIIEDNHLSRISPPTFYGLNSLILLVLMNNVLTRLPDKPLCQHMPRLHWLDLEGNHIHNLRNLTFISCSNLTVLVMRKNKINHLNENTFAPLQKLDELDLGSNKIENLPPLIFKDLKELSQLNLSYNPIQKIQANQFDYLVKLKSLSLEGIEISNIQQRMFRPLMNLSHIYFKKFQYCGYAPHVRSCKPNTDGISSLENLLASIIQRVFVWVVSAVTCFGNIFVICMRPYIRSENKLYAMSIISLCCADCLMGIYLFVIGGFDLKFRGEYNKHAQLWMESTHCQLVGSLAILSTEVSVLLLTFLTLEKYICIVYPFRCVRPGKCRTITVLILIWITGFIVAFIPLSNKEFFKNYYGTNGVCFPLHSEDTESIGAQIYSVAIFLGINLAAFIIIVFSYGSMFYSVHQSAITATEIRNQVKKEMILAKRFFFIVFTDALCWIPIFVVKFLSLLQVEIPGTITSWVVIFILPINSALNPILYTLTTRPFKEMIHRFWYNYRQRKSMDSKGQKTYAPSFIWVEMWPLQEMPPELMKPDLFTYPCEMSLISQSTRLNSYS
# Assay: RXFP1 Hu cAMP (Test A)
# Type: cell-based
# Set-up: expressed in transfected cells; host or cells: Jump-In T-REx CHO-K1 cells (ThermoFisher), induced with 10 ng/ml doxycycline for 24 h
# Details: RXFP1 Hu cAMP; for EC50: read-out: Test A EC50
# Source text: To screen for modulators of hRXFP1, an assay identifying compounds that stimulate cAMP production via the Gs-coupled hRXFP1 receptor was used. cAMP HiRange HTRF kit (available from CisBio Bioassays, France; catalogue number 62AM6PEJ) was employed in large according to manufacturer's recommendations for detection of cAMP. The HTRF method is a competitive immunoassay between native cAMP produced by cells and cAMP labeled with the dye d2. The tracer binding is visualized with a cryptate labeled antibody for cAMP and the signal is thus inversely proportional to the amount of produced cAMP.
# Cells: Jump-In™ T-REx™ CHO-K1 Cells (ThermoFisher) stably transfected with human RXFP1 was employed. Cells were induced to express human RXFP1 by treatment with 10 ng/ml doxycycline for 24 h. Cells were then cryopreserved for long term storage.
# HTRF detection reagents: cAMP-d2 and anti-cAMP cryptate reconstituted according to CisBio instructions were diluted 1:40 in lysis buffer provided with the HTRF-kit.
# 3. 4 μL assay buffer with 1 mM IBMX (0.5 mM final concentration) to block phosphodiesterases was added with Multidrop Combi (ThermoFisher).
# 6. 4 μL cAMP-d2 in lysis buffer was added with Multidrop Combi.
# 7. 4 μL anti-cAMP cryptate in lysis buffer was added with Multidrop Combi
# 8. 2 h incubation at room temperature
# Using a cAMP standard curve, HTRF data was converted to amount cAMP produced in the samples which was subsequentially used for calculation of concentration responses. Concentration response data were fitted with a four parameter logistic fit, the Hill equation. The results from the assay are reported in Table 36 as EC50 (μM) and Sinf (%).
# Where the assay was run multiple times for the same compound, the geometric mean is reported.
# Sinf is the fitted activity level, efficacy, at infinite concentration of test compound. To facilitate comparison of efficacy data, efficacy was normalized to % effect of the response stimulated by a saturating concentration of relaxin (1 nM). Where the assay was run multiple times for the same compound, the arithmetic mean is reported.
Structure (SMILES),Test A Sinf [%],EC50 [µM]
COc1cc(C#N)c(O[C@H]2CC[C@@](C)(C(=O)O)CC2)cc1C(=O)N[C@@H]1[C@H]2CC[C@H](C2)[C@@H]1C(=O)N[C@@H](C)c1ccccc1 (racemic) [Example 140],95,0.084
"COc1ccc(CCC(=O)O)cc1C(=O)N[C@H]1[C@@H](C(=O)Nc2cccc(S(=O)(=O)C(F)(F)F)c2)[C@@H]2C=C[C@H]1C2 (racemic) [Example 218, rac-3-(4-Methoxy-3-(((1R,2R,3S,4S)-3-((3-((trifluoromethyl)sulfonyl)phenyl)carbamoyl)bicyclo[2.2.1]hept-5-en-2-yl)carbamoyl)phenyl)propanoic acid]",,> 40
"COc1ccc(Cc2ccccc2C(=O)O)cc1C(=O)N[C@H]1[C@@H](C(=O)Nc2cccc(S(=O)(=O)C(F)(F)F)c2)[C@@H]2C=C[C@H]1C2 (racemic) [Example 223, rac-2-(4-Methoxy-3-(((1R,2R,3S,4S)-3-((3-((trifluoromethyl)sulfonyl)phenyl)carbamoyl)bicyclo[2.2.1]hept-5-en-2-yl)carbamoyl)benzyl)benzoic acid]",,> 40
COc1cc(F)c(-c2ccc(C(=O)O)cc2F)cc1C(=O)N[C@H]1[C@@H](C(=O)Nc2cccc(S(=O)(=O)C(F)(F)F)c2)[C@@H]2C=C[C@H]1C2 (racemic) [Example 227],102,0.42
COc1cc(F)c(-c2cncc(C(=O)O)c2)cc1C(=O)N[C@H]1[C@@H](C(=O)Nc2cccc(S(=O)(=O)C(F)(F)F)c2)[C@@H]2C=C[C@H]1C2 (racemic) [Example 228],110,
COc1cc(F)c(-c2c[nH]c(C(=O)O)c2)cc1C(=O)N[C@H]1[C@@H](C(=O)Nc2cccc(S(=O)(=O)C(F)(F)F)c2)[C@@H]2C=C[C@H]1C2 (racemic) [Example 229],55,3.3
COc1ccc(-c2cc(C(=O)N[C@H]3[C@@H](C(=O)Nc4cccc(S(=O)(=O)C(F)(F)F)c4)[C@@H]4C=C[C@H]3C4)c(OC)cc2F)cc1C(=O)O (racemic) [Example 230],116,1
COc1cc(F)c(-c2ccc(C(=O)O)c(F)c2)cc1C(=O)N[C@H]1[C@@H](C(=O)Nc2cccc(S(=O)(=O)C(F)(F)F)c2)[C@@H]2C=C[C@H]1C2 (racemic) [Example 232],108,
COc1cc(F)c(-c2cccc(C(=O)O)c2F)cc1C(=O)N[C@H]1[C@@H](C(=O)Nc2cccc(S(=O)(=O)C(F)(F)F)c2)[C@@H]2C=C[C@H]1C2 (racemic) [Example 233],105,
COc1cc(F)c(-c2ccccc2CC(=O)O)cc1C(=O)N[C@H]1[C@@H](C(=O)Nc2cccc(S(=O)(=O)C(F)(F)F)c2)[C@@H]2C=C[C@H]1C2 (racemic) [Example 235],75,
"COc1cc(F)c(-c2ccnc(C(=O)O)c2)cc1C(=O)N[C@H]1[C@@H](C(=O)Nc2cccc(S(=O)(=O)C(F)(F)F)c2)[C@@H]2C=C[C@H]1C2 (racemic) [Example 272, rac-4-(2-Fluoro-4-methoxy-5-(((1R,2R,3S,4S)-3-((3-((trifluoromethyl)sulfonyl)phenyl)carbamoyl)bicyclo[2.2.1]hept-5-en-2-yl)carbamoyl)phenyl)picolinic acid]",107,4.9
"COc1cc(F)c(-c2ccccc2C(=O)O)cc1C(=O)N[C@H]1[C@@H](C(=O)Nc2cccc(S(=O)(=O)C(F)(F)F)c2)[C@@H]2C=C[C@H]1C2 (racemic) [Example 273, rac-2′-Fluoro-4′-methoxy-5′-(((1R,2R,3S,4S)-3-((3-((trifluoromethyl)sulfonyl)phenyl)carbamoyl)bicyclo[2.2.1]hept-5-en-2-yl)carbamoyl)-[1,1′-biphenyl]-2-carboxylic acid]",,> 40
"COc1cc(F)c(-c2ccc(C(=O)O)nc2)cc1C(=O)N[C@H]1[C@@H](C(=O)Nc2cccc(S(=O)(=O)C(F)(F)F)c2)[C@@H]2C=C[C@H]1C2 (racemic) [Example 274, rac-5-(2-Fluoro-4-methoxy-5-(((1R,2R,3S,4S)-3-((3-((trifluoromethyl)sulfonyl)phenyl)carbamoyl)bicyclo[2.2.1]hept-5-en-2-yl)carbamoyl)phenyl)picolinic acid]",61,5.7
"COc1cc(F)c(-c2nc(C(=O)O)co2)cc1C(=O)N[C@H]1[C@@H](C(=O)Nc2cccc(S(=O)(=O)C(F)(F)F)c2)[C@@H]2C=C[C@H]1C2 (racemic) [Example 275, rac-2-(2-Fluoro-4-methoxy-5-(((1R,2R,3S,4S)-3-((3-((trifluoromethyl)sulfonyl)phenyl)carbamoyl)bicyclo[2.2.1]hept-5-en-2-yl)carbamoyl)phenyl)oxazole-4-carboxylic acid]",83,11
COc1cc(F)c(-c2cnc(C(=O)O)cn2)cc1C(=O)N[C@H]1[C@@H](C(=O)Nc2cccc(S(=O)(=O)C(F)(F)F)c2)[C@@H]2C=C[C@H]1C2 (racemic) [Example 276],95,3.3
COc1cc(F)c(-c2cc(C(=O)O)ccn2)cc1C(=O)N[C@H]1[C@@H](C(=O)Nc2cccc(S(=O)(=O)C(F)(F)F)c2)[C@@H]2C=C[C@H]1C2 (racemic) [Example 277],122,7.4
COc1cc(F)c(-c2ccc(C(=O)O)cn2)cc1C(=O)N[C@H]1[C@@H](C(=O)Nc2cccc(S(=O)(=O)C(F)(F)F)c2)[C@@H]2C=C[C@H]1C2 (racemic) [Example 278],104,
COc1cc(F)c(-c2cccc(C(=O)O)n2)cc1C(=O)N[C@H]1[C@@H](C(=O)Nc2cccc(S(=O)(=O)C(F)(F)F)c2)[C@@H]2C=C[C@H]1C2 (racemic) [Example 279],,> 40
COc1cc(F)c(-c2cnc(C(=O)O)nc2)cc1C(=O)N[C@H]1[C@@H](C(=O)Nc2cccc(S(=O)(=O)C(F)(F)F)c2)[C@@H]2C=C[C@H]1C2 (racemic) [Example 280],,> 40
"COc1cc(F)c(-c2cc(C(=O)O)cs2)cc1C(=O)N[C@H]1[C@@H](C(=O)Nc2cccc(S(=O)(=O)C(F)(F)F)c2)[C@@H]2C=C[C@H]1C2 (racemic) [Example 284, rac-5-(2-Fluoro-4-methoxy-5-(((1R,2R,3S,4S)-3-((3-((trifluoromethyl)sulfonyl)phenyl)carbamoyl)bicyclo[2.2.1]hept-5-en-2-yl)carbamoyl)phenyl)thiophene-3-carboxylic acid]",85,0.82
COc1cc(F)c(-c2ccc(C(=O)O)s2)cc1C(=O)N[C@H]1[C@@H](C(=O)Nc2cccc(S(=O)(=O)C(F)(F)F)c2)[C@@H]2C=C[C@H]1C2 (racemic) [Example 285],75,0.3
COc1cc(F)c(-c2nc(C(=O)O)cs2)cc1C(=O)N[C@H]1[C@@H](C(=O)Nc2cccc(S(=O)(=O)C(F)(F)F)c2)[C@@H]2C=C[C@H]1C2 (racemic) [Example 286],29,
COc1cc(F)c(-c2ncc(C(=O)O)s2)cc1C(=O)N[C@H]1[C@@H](C(=O)Nc2cccc(S(=O)(=O)C(F)(F)F)c2)[C@@H]2C=C[C@H]1C2 (racemic) [Example 287],111,0.57
